Measured values as given in ChEMBL document CHEMBL1130680, “Restricting the flexibility of crosslinked, interfacial peptide inhibitors of HIV-1 protease” (Bioorg Med Chem Lett, 1998).

Target: Human immunodeficiency virus type 1 protease (Human immunodeficiency virus 1, UniProt Q72874)
Assay: Inhibition of HIV-1 protease by fluorogenic substrate assay

SMILES | IC50
CC[C@H](C)[C@H](NC(=O)[C@H](CCC(N)=O)NC(=O)[C@@H]1CCCN1C(=O)CCCCC/C=C/CCCCCC(=O)N[C@H](CO)C(=O)N[C@@H](C(=O)N[C@H](CC(C)C)C(=O)N[C@H](CC(N)=O)C(=O)N[C@H](Cc1ccccc1)C(=O)O)[C@H](C)O)C(=O)N[C@H](C(=O)N[C@@H](CC(C)C)C(=O)N[C@@H](Cc1c[nH]c2ccccc12)C(=O)O)[C@@H](C)O | 51.5 µM
CC[C@H](C)[C@H](NC(=O)[C@H](CCC(N)=O)NC(=O)[C@@H]1CCCN1C(=O)CCCCCC/C=C/CCCCCCC(=O)N[C@H](CO)C(=O)N[C@@H](C(=O)N[C@H](CC(C)C)C(=O)N[C@H](CC(N)=O)C(=O)N[C@H](Cc1ccccc1)C(=O)O)[C@H](C)O)C(=O)N[C@H](C(=O)N[C@@H](CC(C)C)C(=O)N[C@@H](Cc1c[nH]c2ccccc12)C(=O)O)[C@@H](C)O | 17.5 µM
CC[C@H](C)[C@H](NC(=O)[C@H](CCC(N)=O)NC(=O)[C@@H]1CCCN1C(=O)CCCCCCC/C=C/CCCCCCCC(=O)N[C@H](CO)C(=O)N[C@@H](C(=O)N[C@H](CC(C)C)C(=O)N[C@H](CC(N)=O)C(=O)N[C@H](Cc1ccccc1)C(=O)O)[C@H](C)O)C(=O)N[C@H](C(=O)N[C@@H](CC(C)C)C(=O)N[C@@H](Cc1c[nH]c2ccccc12)C(=O)O)[C@@H](C)O | 6.3 µM
CC[C@H](C)[C@H](NC(=O)[C@H](CCC(N)=O)NC(=O)[C@@H]1CCCN1C(=O)CCCCCC/C=C\CCCCCCC(=O)N[C@H](CO)C(=O)N[C@@H](C(=O)N[C@H](CC(C)C)C(=O)N[C@H](CC(N)=O)C(=O)N[C@H](Cc1ccccc1)C(=O)O)[C@H](C)O)C(=O)N[C@H](C(=O)N[C@@H](CC(C)C)C(=O)N[C@@H](Cc1c[nH]c2ccccc12)C(=O)O)[C@@H](C)O | 12.9 µM
CC[C@H](C)[C@H](NC(=O)[C@H](CCC(N)=O)NC(=O)[C@@H]1CCCN1C(=O)CCCCC/C=C\CCCCCC(=O)N[C@H](CO)C(=O)N[C@@H](C(=O)N[C@H](CC(C)C)C(=O)N[C@H](CC(N)=O)C(=O)N[C@H](Cc1ccccc1)C(=O)O)[C@H](C)O)C(=O)N[C@H](C(=O)N[C@@H](CC(C)C)C(=O)N[C@@H](Cc1c[nH]c2ccccc12)C(=O)O)[C@@H](C)O | 32.7 µM
CC[C@H](C)[C@H](NC(=O)[C@H](CCC(N)=O)NC(=O)[C@@H]1CCCN1C(=O)CCCCCCCCCCCCCCCCC(=O)N[C@H](CO)C(=O)N[C@@H](C(=O)N[C@H](CC(C)C)C(=O)N[C@H](CC(N)=O)C(=O)N[C@H](Cc1ccccc1)C(=O)O)[C@H](C)O)C(=O)N[C@H](C(=O)N[C@@H](CC(C)C)C(=O)N[C@@H](Cc1c[nH]c2ccccc12)C(=O)O)[C@@H](C)O | 4 µM
CC[C@H](C)[C@H](NC(=O)[C@H](CCC(N)=O)NC(=O)[C@@H]1CCCN1C(=O)CCCCCCCCCCCCCCC(=O)N[C@H](CO)C(=O)N[C@@H](C(=O)N[C@H](CC(C)C)C(=O)N[C@H](CC(N)=O)C(=O)N[C@H](Cc1ccccc1)C(=O)O)[C@H](C)O)C(=O)N[C@H](C(=O)N[C@@H](CC(C)C)C(=O)N[C@@H](Cc1c[nH]c2ccccc12)C(=O)O)[C@@H](C)O | 2 µM
CC[C@H](C)[C@H](NC(=O)[C@H](CCC(N)=O)NC(=O)[C@@H]1CCCN1C(=O)CCCCCCCCCCCCC(=O)N[C@H](CO)C(=O)N[C@@H](C(=O)N[C@H](CC(C)C)C(=O)N[C@H](CC(N)=O)C(=O)N[C@H](Cc1ccccc1)C(=O)O)[C@H](C)O)C(=O)N[C@H](C(=O)N[C@@H](CC(C)C)C(=O)N[C@@H](Cc1c[nH]c2ccccc12)C(=O)O)[C@@H](C)O | 13 µM
CC[C@H](C)[C@H](NC(=O)[C@H](CCC(N)=O)NC(=O)[C@@H]1CCCN1C(=O)CCCCCCCC#CCCCCCCCC(=O)N[C@H](CO)C(=O)N[C@@H](C(=O)N[C@H](CC(C)C)C(=O)N[C@H](CC(N)=O)C(=O)N[C@H](Cc1ccccc1)C(=O)O)[C@H](C)O)C(=O)N[C@H](C(=O)N[C@@H](CC(C)C)C(=O)N[C@@H](Cc1c[nH]c2ccccc12)C(=O)O)[C@@H](C)O | 7.2 µM
CC[C@H](C)[C@H](NC(=O)[C@H](CCC(N)=O)NC(=O)[C@@H]1CCCN1C(=O)CCCCCCC#CCCCCCCC(=O)N[C@H](CO)C(=O)N[C@@H](C(=O)N[C@H](CC(C)C)C(=O)N[C@H](CC(N)=O)C(=O)N[C@H](Cc1ccccc1)C(=O)O)[C@H](C)O)C(=O)N[C@H](C(=O)N[C@@H](CC(C)C)C(=O)N[C@@H](Cc1c[nH]c2ccccc12)C(=O)O)[C@@H](C)O | 4.5 µM
CC[C@H](C)[C@H](NC(=O)[C@H](CCC(N)=O)NC(=O)[C@@H]1CCCN1C(=O)CCCCCC#CCCCCCC(=O)N[C@H](CO)C(=O)N[C@@H](C(=O)N[C@H](CC(C)C)C(=O)N[C@H](CC(N)=O)C(=O)N[C@H](Cc1ccccc1)C(=O)O)[C@H](C)O)C(=O)N[C@H](C(=O)N[C@@H](CC(C)C)C(=O)N[C@@H](Cc1c[nH]c2ccccc12)C(=O)O)[C@@H](C)O | 21 µM
CC[C@H](C)[C@H](NC(=O)[C@H](CCC(N)=O)NC(=O)[C@@H]1CCCN1C(=O)CCCCCCC/C=C\CCCCCCCC(=O)N[C@H](CO)C(=O)N[C@@H](C(=O)N[C@H](CC(C)C)C(=O)N[C@H](CC(N)=O)C(=O)N[C@H](Cc1ccccc1)C(=O)O)[C@H](C)O)C(=O)N[C@H](C(=O)N[C@@H](CC(C)C)C(=O)N[C@@H](Cc1c[nH]c2ccccc12)C(=O)O)[C@@H](C)O | 4.4 µM
